“Also recorded” adds a separate entry of the source.
Tests used:
[1] = molecular target: T1, hM4DREADD in Tac2+ neurons (Homo sapiens, UniProt P08173, A203G/Y113C); experiment: Resident intruder assay, CNO silencing of Tac2+ neurons (hM4DREADD); type: in vivo, mouse; conditions: SIS Tac2-Cre mice, hM4DREADD in DMH; CNO 5 mg/kg i.p.
T1 construct: host or cells: Tac2+ neurons of Tac2-Cre mice (dBNSTa, DMH or CeA), transduced in vivo with AAV2-EF1a-DIO-hM4D-mCherry
T1 sequence (P08173 1-479 Y113C/A203G): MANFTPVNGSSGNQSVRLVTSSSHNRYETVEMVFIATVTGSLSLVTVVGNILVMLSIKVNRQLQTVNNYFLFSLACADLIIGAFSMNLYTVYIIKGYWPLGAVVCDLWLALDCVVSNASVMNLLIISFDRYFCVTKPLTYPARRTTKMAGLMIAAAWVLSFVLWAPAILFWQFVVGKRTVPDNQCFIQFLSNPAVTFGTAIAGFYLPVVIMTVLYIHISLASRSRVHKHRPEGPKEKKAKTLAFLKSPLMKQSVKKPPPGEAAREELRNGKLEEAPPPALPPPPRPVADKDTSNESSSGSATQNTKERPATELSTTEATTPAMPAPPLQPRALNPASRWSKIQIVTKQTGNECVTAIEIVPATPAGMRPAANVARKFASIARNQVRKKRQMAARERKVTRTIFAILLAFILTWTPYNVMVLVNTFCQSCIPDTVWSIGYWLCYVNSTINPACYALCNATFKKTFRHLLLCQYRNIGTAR
Method: Testing for aggression using the resident intruder assay (Blanchard et al., 2003; incorporated by reference in its entirety) was performed as previously described (Hong et al., 2015; Hong et al., 2014; Lee et al., 2014; incorporated by reference in their entirety). Briefly, experimental mice (“residents”) were transported in their homecage to a novel behavior testing room (cagemates in group housed mice were removed from the homecage prior to transport for this and all other behavioral tests), where they acclimated for 5-15 minutes. Homecages were then slotted into a customized behavioral chamber lit with a surround panel of infrared lights and equipped with two synchronized infrared video cameras (Pointgrey) placed at 90-degree angles from each other to allow for simultaneous behavior recording with a front and top view. Synchronized video was acquired using Hunter 4.0 software (custom, Pietro Perona lab, Caltech). […] Fighting bouts were scored on a frame-by-frame basis and were defined as a frame during which the resident male was engaged in an episode of biting or intense aggressive behavior immediately surrounding a biting episode. Annotation files were then batch analyzed for behavior, including number of fighting bouts, using in-house customized programs in MATLAB (A. Kennedy, Caltech). […]

[2] = molecular target: T1, hM4DREADD in Tac2+ neurons; experiment: Looming disk assay, CNO silencing of Tac2+ neurons (hM4DREADD); type: in vivo, mouse; conditions: SIS Tac2-Cre mice, CNO 5 mg/kg i.p.
Method: Freezing behavior to presentation of an overhead looming disk proceeded as previously described (Kunwar et al., 2015; Yilmaz and Meister, 2013; incorporated by reference in their entirety). Briefly, mice were transported to a novel behavioral testing room. After 5 minutes of acclimation, mice were placed inside a novel, custom-built open top Plexiglas arena (48×48×30 cm) covered with a flat screen monitor placed directly above and with illumination provided by infrared LEDs (Marubeni). Mice were given a 5 minute baseline period in the arena, after which entry into the center of the arena triggered presentation of a single, 10 second overhead looming disk stimulus (comprised of a single looming disk presentation 0.5 seconds in duration, which was repeated 10 times with an inter-stimulus interval of 0.5 seconds). The stimulus was controlled by custom MATLAB code (M. Meister, Caltech) run on a dedicated computer in an adjacent room. Mice remained in the area for an additional 2 minutes before being transported back. Behavior was recorded using a video recorder attached to a laptop equipped with video capture software (Corel VideoStudio Pro). Acute freezing behavior to the looming disk (“during”) as well as in the 30 seconds following the last disk (“post”) were scored manually (Behavior Annotator, MATLAB) by an observer blind to environmental conditions. […]

Q: With C[N+]1([O-])CCN(C2=Nc3cc(Cl)ccc3Nc3ccccc32)CC1 [CNO, clozapine-N-oxide] as the molecule, how does the aggression [1] read?
A: Its aggression is “blocked; also recorded: inhibited”.

Q: What about the “acute (during) freezing to looming disk” value ([2]; hM4DREADD in CeA) of the same molecule?
A: Its value is “blocked; also recorded: suppressed”.

Q: And the “persistent (post) freezing to looming disk” value ([2]; hM4DREADD in dBNSTa)?
A: Its value is “blocked; also recorded: selectively attenuated”.
